Experimental data: US20210393857A1, “SMALL MOLECULE DRUGS AND METHODS TO ACCELERATE OSSEOINTEGRATION” (The Regents of the University of California, priority 2018, published 2021)
Counter-ions that a name gives are not always drawn. Marks after values point to notes of the source that are not given here.

Columns and labels:
I1 imidazoline receptor = conditions: comparison within marsanidine, 7-Me-, 7-Cl-, 7-F-marsanidine; cited from earlier work
α2-adrenoreceptors = conditions: comparison within marsanidine, 7-Me-, 7-Cl-, 7-F-marsanidine; cited from earlier work
[1] = test system: Npas2-LacZ expression of mouse BMSC; assay: High throughput screening of LOPAC 1280 compounds for Npas2-LacZ expression (Beta-Glo β-galactosidase assay); type: cell-based; conditions: compound 1 μM, 48 hours, BMSC from Npas2−/− mice carrying LacZ reporter
Description: Femur BMSC harvested from Npas2−/− mice were previously characterized for LacZ expression, which was used in this study for high throughput, unbiased screening of Library of Pharmacologically Active Compounds (LOPAC®^1280). (Hassan, N., et al., (2017) PLoS One 12, e0183359). Using 384-well plates, each well was filled with 25 μl non-phenol red DMEM containing 10% FBS and 1% PS, and added 50 nL of LOPAC®^1280 compound (final concentration: 1 μM) using 500 nL pin tool (Biomek FX, Beckman Coulter, Indianapolis, Ind.). To each well, BMSC (Npas2-LacZ) were placed as 1500 cells/25 μl suspension and incubated at room temperature for 1 hour, followed by incubation at 37° C. and 5% CO2 for 48 hours. To measure Npas2-LacZ expression, β-galactosidase activity was measured using a commercially available assay (Beta-Glo Assay System, Promega, Summerville, Calif.).
The Npas2-LacZ expression data were uploaded on an online data analysis tool (CDD Vault, Collaborative Drug Discovery, Inc, Burlingame, Calif.), on which data were normalized and Z-factor was calculated. For this study, hit compounds were selected as Z-score >2.5 or <−2.5.

[2] = test system: implant osseointegration in mouse femur; assay: Implant push-out test of Ti implants placed in mouse femur; type: in vivo; conditions: 75 mg/Kg daily IP for 2 weeks, machined or B-DAE-DCD surface implants, vs vehicle 0.9% NaCl
Text: Male 10˜15-wk-old C57Bl/6J mice underwent surgical placement of Ti implants. After anesthesia with isoflurane inhalation, the distal femur was accessed via medial parapatellar arthrotomy with lateral displacement of the quadriceps-patellar complex. After locating the femoral intercondylar notch, the femoral intramedullary canal was manually reamed with a 25-gauge needle for entry into the canal and further reamed with a 23-gauge needle. A Ti implant was inserted in a retrograde fashion into each femur of a mouse. The Ti implant was clipped at 4 mm and further inserted 4 mm using a periodontal probe. The quadriceps-patellar complex was reduced to its anatomic position, and the surgical site was closed using Vicryl 5-0 sutures. Carprofen (5.0 mg/kg) (Rimadyl, Zoetis US, Parsippany, N.J.) was administered subcutaneously at the time of surgery and every 24 hours for 2 days after surgery.
Mice were euthanized and femur bones were harvested at the predetermined healing time. […] The mechanical withholding strength was measured by pushing the implant out from the femur bone marrow using a custom-made stainless-steel pushing rod mounted on a 1000-N load cell (Instron, Canton, Mass.). The axial load on the implant was applied at a cross-head speed of 1 mm/min, and displacement of the implant and the load were recorded. […]

[3] = test system: adenosine A1 and A2 receptors; conditions: selectivity A1 over A2; cited from earlier work

Structure (SMILES) | affinity for the I1 imidazoline receptor (rank among marsanidine analogs) (I1 imidazoline receptor) | affinity for α2-adrenoreceptors (rank among marsanidine analogs) (α2-adrenoreceptors) | % Activity (activity against negative controls in LOPAC 1280 screening) [1] | other results
Fc1cccc2cnn(N=C3NCCN3)c12 [7-F-marsanidine] | higher affinity for the I1 imidazoline receptor than 7-Cl-marsanidine | comparable affinity for α2-adrenoreceptors |  | 
O=C1CCc2cc(OCCCCc3nnnn3C3CCCCC3)ccc2N1 [Cilostazol (MS-1505230), 6-[4-(1-cyclohexyl-1H-tetrazol-5-yl)-butoxy]-3,4-dihydro-2(1H)-quinolinone] |  |  | 26.2% | 
Cc1cccc2cnn(N=C3NCCN3)c12 [7-Me-marsanidine] | highest affinity for the I1 imidazoline receptor | low affinity for α2-adrenoreceptors |  | 
O=c1ccc2c(OCCCCc3ccccc3)c3ccoc3cc2o1 [Psora-4, 5-(4-phenylbutoxy)psoralen] |  |  | 35.3% | 
Cn1c(=O)c2[nH]c(-c3ccc(S(=O)(=O)O)cc3)nc2n(C)c1=O [8-(p-Sulfophenyl)-theophylline, 8-(p-sulfophenyl) theophylline] |  |  | 104.0% | 
CC[C@@H](CO)NC(=O)[C@@H]1C=C2c3cccc4c3c(cn4C)C[C@H]2N(C)C1 [Methysergide maleate, 1-methyl-D-lysergic acid butanolamide] |  |  | 28.6% | 
C[C@](N)(Cc1ccc(O)c(O)c1)C(=O)O [Methyldopa (L, −), L-α-Methyl-3,4-dihydroxyphenylalanine] |  |  | 18.1% | implant push-out value [2]: greater push-out value than vehicle treated control mice
Cc1nccc2c1[nH]c1ccccc12 [Harmane (MS-1500866), 1-Methyl-9H-pyrido[3,4-b]indole] |  |  | −15.6** % | 
CCCn1c(=O)c2[nH]c(-c3ccccc3)nc2n(CCC)c1=O [1,3-dipropyl-8-phenylxanthine] |  |  |  | fold more potent at A1 receptors than at A2 receptors [3]: about 23 fold
c1ccc2c(c1)cnn2N=C1NCCN1 [marsanidine] | lowest affinity for the I1 imidazoline receptor | highest affinity for α2-adrenoreceptors |  | 
Clc1cccc2cnn(N=C3NCCN3)c12 [7-Cl-marsanidine] | lower affinity for the I1 imidazoline receptor | higher affinity for α2-adrenoreceptors |  | 
CCCn1c(=O)c2[nH]c(-c3ccc(Cl)cc3N)nc2n(CCC)c1=O [8-(2-amino-4-chlorophenyl)-1,3-dipropylxanthine] |  |  |  | fold more potent at A1 receptors than at A2 receptors [3]: ~400 fold
